Experimental data as given in PMC3389674, “Comparison of Soluble Guanylate Cyclase Stimulators and Activators in Models of Cardiovascular Disease Associated with Oxidative Stress” (Frontiers in Pharmacology, 2012).

Assays:
SHR-SP = test: chronic treatment of SHR-SP on high salt/fat diet: survival, blood pressure, renal and cardiac function; type: in vivo, rat; conditions: for CO (cardiac output) / EDV (end diastolic volume) / EF (ejection fraction) / ESV (end systolic volume) / SV (stroke volume) / LVM/BW (left ventricular mass to body weight ratio): echocardiography after 7 weeks of HSFD; for LVM/BW (left ventricular mass to body weight ratio): HSFD control 3.08 ± 0.06; for survival rate: HSFD control 14%; for MAP: HSFD control 192 ± 10; for effect on MAP compared to the HSFD controls: lower doses: 0.1 mg/kg/day GSK2181236A, 0.3 mg/kg/day BAY 60-4552; for urine output: HSFD control 111 ± 21
Description: The SHR-SP is an established model of genetic hypertension. […] As such, a cohort of HSFD SHR-SP was established as a model of cardiovascular disease associated with chronic oxidative stress in this study.
A subgroup of animals (n = 45) was anesthetized with isoflurane and surgically implanted with radiotelemetry transmitters (PhysioTel PA-C40, Data Sciences International, St. Paul, MN, USA). The transmitter catheter was threaded through the femoral artery into the abdominal aorta. At 11–12 weeks of age, baseline blood pressure and heart rate were measured for 5 days (10 s recordings every 5 min) in normal caging, then rats were acclimated to metabolic caging for a minimum of 48 h before a basal 24 h urine sample and blood were collected. […] The ND group was maintained on normal chow and water throughout the study. […] Rats displaying signs of morbidity which included piloerection, lack of grooming, persistent body weight loss, lethargy, or seizure/convulsions, were promptly euthanized.
Treatments were administered in respective diets starting 1 week after the initiation of HSFD. Urine collections were repeated on weeks 2, 4, 6, and 8 and blood was sampled in the morning after each 24 h collection period for assessment of renal function. Plasma creatinine and urine sodium, microalbumin (MALB), and creatinine were ascertained using an AU640 Chemistry Analyzer (Olympus America, Inc., Center Valley, PA, USA). Plasma compound concentrations were determined as described above.
During week 7, cardiac function and morphometry were evaluated via transthoracic echocardiography. Rats were anesthetized with isoflurane (2–4% induction and 1–3% maintenance). Two-dimensional gray scale images of the left ventricle were obtained in the short axis plane at mid-ventricle level and in the parasternal long axis plane using a GE Vivid 7 system (GE Medical Systems, Milwaukee, WI, USA) and stored as digital cineloops. Pulse wave Doppler recordings from the LV outflow were obtained to determine heart rate. All images were analyzed by a single observer using a GE EchoPac (GE Medical Systems, Milwaukee, WI, USA). LV volumes were calculated as V=5/6(LVA×LVL) where LVA is area of LV chamber from the short axis view and LVL is the LV length from the long axis view at end diastole and end systole. […] Analysis was performed on three to five cardiac cycles.

WKY rat isolated aorta = test: vasodilation of phenylephrine-contracted WKY rat isolated aorta with and without ODQ
Experimental: Male Wistar Kyoto (WKY; Charles River Laboratories, Inc., Raleigh, NC, USA) were anesthetized with inhaled isoflurane (5% in O2) and euthanized by exsanguination. Thoracic aorta was isolated, cleaned of adherent tissue, cut into 3 mm rings, and suspended in 10 mL organ baths containing Krebs–Henseleit buffer (KHB) of the following composition (mM): NaCl, 112.0; KCl, 4.7; KH2PO4, 1.2; MgSO4, 1.2; CaCl2, 2.5; NaHCO3, 25.0; glucose, 11.0. KHB was maintained at 37°C and aerated with 95%O2:5%CO2 (pH 7.4). Changes in isometric force were measured under 1g optimal resting tension using MLT0201/D force-displacement transducers (Letica, Barcelona, Spain) and recorded digitally (Chart 5.0 software, ADInstruments, Colorado Springs, CO, USA). After a 1 h equilibration period, each tissue was contracted to equilibrium with 60 mM KCl, washed with KHB and allowed to relax to the resting tension. The 60 mM KCl contraction was repeated and subsequent contractile responses were normalized to this second KCl response. Each tissue was then contracted to equilibration with 1 μM phenylephrine, washed with KHB and allowed to relax to the resting tension. In order to further investigate the mechanism by which BAY 60-4552 and GSK2181236A were modulating sGC function, the vasodilatory effects of both compounds were assessed in the presence and absence of ODQ, a heme-site inhibitor of sGC. Following a 20 min pre-treatment with DMSO vehicle (0.1% final concentration, v/v) or ODQ (10 μM), aortae were contracted with 0.3 μM phenylephrine (an approximate EC80 concentration). Once the contractile response to phenylephrine reached a plateau (∼10 min), contractile tone was reversed by adding cumulative concentrations of BAY 60-4552 or GSK2181236A to the tissue baths at log increments (0.1 nM to 10 μM).

Cc1cc(-c2ccc(OC(F)(F)F)cc2)ccc1COc1ccccc1-c1cccc(-n2ncc(C(=O)O)c2C(F)(F)F)n1 [GSK2181236A, 1-(6-{2-[({3-methyl-4′-[(trifluoromethyl)oxy]-4-biphenylyl}methyl)oxy]phenyl}-2-pyridinyl)-5-(trifluoromethyl)-1H-pyrazole-4-carboxylic acid]
reduction of MAP compared to HSFD controls (SHR-SP; 1.0 mg/kg/day for 7 week, not significant): 9 mmHg
MALB excretion vs HSFD controls (SHR-SP; 0.1 and 1.0 mg/kg/day): did not alter
sodium excretion vs HSFD controls (SHR-SP; 0.1 and 1.0 mg/kg/day): did not alter
urine output vs HSFD controls (SHR-SP; 0.1 and 1.0 mg/kg/day): did not alter
CO (cardiac output) (SHR-SP; HSFD + 0.1 mg/kg/day): 76 ± 7 mL/min
EDV (end diastolic volume) (SHR-SP; HSFD + 0.1 mg/kg/day): 331 ± 29 µL
EF (ejection fraction) (SHR-SP; HSFD + 0.1 mg/kg/day): 67 ± 2%
ESV (end systolic volume) (SHR-SP; HSFD + 0.1 mg/kg/day): 110 ± 11 µL
SV (stroke volume) (SHR-SP; HSFD + 0.1 mg/kg/day): 222 ± 19 µL
LVM/BW (left ventricular mass to body weight ratio) (SHR-SP; HSFD + 0.1 mg/kg/day): 2.69 ± 0.08 mg/g
CO (cardiac output) (SHR-SP; HSFD + 1.0 mg/kg/day): 80 ± 5 mL/min
EDV (end diastolic volume) (SHR-SP; HSFD + 1.0 mg/kg/day): 332 ± 22 µL
EF (ejection fraction) (SHR-SP; HSFD + 1.0 mg/kg/day): 71 ± 1%
ESV (end systolic volume) (SHR-SP; HSFD + 1.0 mg/kg/day): 98 ± 10 µL
SV (stroke volume) (SHR-SP; HSFD + 1.0 mg/kg/day): 234 ± 14 µL
LVM/BW (left ventricular mass to body weight ratio) (SHR-SP; HSFD + 1.0 mg/kg/day): 2.82 ± 0.07 mg/g
survival (SHR-SP; HSFD, 0.1 mg/kg/day for 7 week): did not improve survival
survival rate (SHR-SP; HSFD, 1.0 mg/kg/day for 7 week): 69%
MAP (SHR-SP; HSFD, 1.0 mg/kg/day for 7 week): 183 ± 7 mmHg
effect on MAP compared to the HSFD controls (SHR-SP): did not have any effect on MAP
increase of vasodilatory response by ODQ (WKY rat isolated aorta; 0.1 μM compound, ODQ 10 μM): 41%
increase of vasodilatory response by ODQ (WKY rat isolated aorta; 1 μM compound, ODQ 10 μM): 36%
increase of vasodilatory response by ODQ (WKY rat isolated aorta; 10 μM compound): 21%

COC(=O)Nc1c(N)nc(-c2nn(Cc3ccccc3F)c3ncccc23)nc1N [BAY 60-4552]
reduction of MAP compared to HSFD controls (SHR-SP; 3 mg/kg/day for 7 weeks, P > 0.05): 17 mmHg
CO (cardiac output) (SHR-SP; HSFD + 0.3 mg/kg/day): 86 ± 6 mL/min
EDV (end diastolic volume) (SHR-SP; HSFD + 0.3 mg/kg/day): 356 ± 21 µL
EF (ejection fraction) (SHR-SP; HSFD + 0.3 mg/kg/day): 69 ± 2%
ESV (end systolic volume) (SHR-SP; HSFD + 0.3 mg/kg/day): 111 ± 11 µL
SV (stroke volume) (SHR-SP; HSFD + 0.3 mg/kg/day): 245 ± 14 µL
LVM/BW (left ventricular mass to body weight ratio) (SHR-SP; HSFD + 0.3 mg/kg/day): 3.06 ± 0.07 mg/g
CO (cardiac output) (SHR-SP; HSFD + 3.0 mg/kg/day): 89 ± 6 mL/min
EDV (end diastolic volume) (SHR-SP; HSFD + 3.0 mg/kg/day): 379 ± 21 µL
EF (ejection fraction) (SHR-SP; HSFD + 3.0 mg/kg/day): 67 ± 1%
ESV (end systolic volume) (SHR-SP; HSFD + 3.0 mg/kg/day): 120 ± 9 µL
SV (stroke volume) (SHR-SP; HSFD + 3.0 mg/kg/day): 259 ± 13 µL
LVM/BW (left ventricular mass to body weight ratio) (SHR-SP; HSFD + 3.0 mg/kg/day): 2.85 ± 0.10 mg/g
survival rate (SHR-SP; HSFD, 0.3 mg/kg/day for 7 week): 46%
urine output (SHR-SP; HSFD, 0.3 mg/kg/day for seven weeks): 79 ± 11 mL/day
survival rate (SHR-SP; HSFD, 3 mg/kg/day for 7 week): 69%
MAP (SHR-SP; HSFD, 3 mg/kg/day for 7 weeks): 175 ± 1 mmHg
urine output (SHR-SP; HSFD, 3.0 mg/kg/day for seven weeks): 56 ± 10 mL/day
sodium excretion (SHR-SP; HSFD, 3.0 mg/kg/day, HSFD control 26.4 ± 2.2): 16 ± 2 mmol/day
MALB excretion (SHR-SP; HSFD, 3.0 mg/kg/day, HSFD control 282.4 ± 20.2): 142 ± 42 mg/day
effect on MAP compared to the HSFD controls (SHR-SP): did not have any effect on MAP
reduction of vasodilatory response by ODQ (WKY rat isolated aorta; 0.1 μM compound, ODQ 10 μM): 48%
reduction of vasodilatory response by ODQ (WKY rat isolated aorta; 1 μM compound, ODQ 10 μM): 30%
